IC50 data for 20 compounds are collected here from ChEMBL document CHEMBL3638921, “Bicyclic aryl and heteroaryl sodium channel inhibitors” (2015).

Test [1] addresses T1, Sodium channel protein type 9 subunit alpha (Homo sapiens, UniProt Q15858). Put plainly: In Vitro Assay: 293 Cells stably transfected with either Nav 1.7 or Nav 1.5 were recorded in population patch-clamp mode with the IonWorks Quattro automated electrophysiology system in accordance with the manufacturer's specifications (Molecular Devices, LLC, Sunnyvale, Calif.). Sodium channel currents were measured in response to a train of depolarizations that induced successively greater inactivation.Cells were held at -110 mV for three seconds (Nav 1.7) or half a second (Nav 1.5) from a holding voltage of -15 mV, then put through a series of 26 pulses of 150 msec duration to -20 mV at a frequency of 5 Hz. Cells were then left unclamped for a period of 3 to 8 minutes while a single concentration of test compound was added. Cells were then reclamped and put through the same voltage protocol. Current at the end of the 26th pulse to -20 mV was subtracted from the peak current evoked by the 26th pulse to -20 mV to correct for leak current.

The target of test [2] is T1, Sodium channel protein type 9 subunit alpha. Put plainly: In Vitro PX Assay: 293 cells stably transfected with human Nav1.7 were recorded in whole cell voltage clamp mode with the PatchXpress automated electrophysiology system (Molecular Devices, LLC, Sunnyvale, Calif.). Compound effects were measured on a partially inactivated state of the sodium channel. Cells were clamped to a holding potential yielding 20 to 50% inactivation. To elicit sodium current, channels were activated by pulsing to −10 mV for 20 msec. This voltage protocol was repeated at a rate of 0.1 Hz throughout the experiment. A single concentration of test compound was applied to cells for a duration of 3 minutes. Peak sodium current was measured at the end of the compound addition period to determine percent inhibition. It counts as cell-based.

The structures appear in SMILES notation.

T1 sequence (Q15858 whole entry): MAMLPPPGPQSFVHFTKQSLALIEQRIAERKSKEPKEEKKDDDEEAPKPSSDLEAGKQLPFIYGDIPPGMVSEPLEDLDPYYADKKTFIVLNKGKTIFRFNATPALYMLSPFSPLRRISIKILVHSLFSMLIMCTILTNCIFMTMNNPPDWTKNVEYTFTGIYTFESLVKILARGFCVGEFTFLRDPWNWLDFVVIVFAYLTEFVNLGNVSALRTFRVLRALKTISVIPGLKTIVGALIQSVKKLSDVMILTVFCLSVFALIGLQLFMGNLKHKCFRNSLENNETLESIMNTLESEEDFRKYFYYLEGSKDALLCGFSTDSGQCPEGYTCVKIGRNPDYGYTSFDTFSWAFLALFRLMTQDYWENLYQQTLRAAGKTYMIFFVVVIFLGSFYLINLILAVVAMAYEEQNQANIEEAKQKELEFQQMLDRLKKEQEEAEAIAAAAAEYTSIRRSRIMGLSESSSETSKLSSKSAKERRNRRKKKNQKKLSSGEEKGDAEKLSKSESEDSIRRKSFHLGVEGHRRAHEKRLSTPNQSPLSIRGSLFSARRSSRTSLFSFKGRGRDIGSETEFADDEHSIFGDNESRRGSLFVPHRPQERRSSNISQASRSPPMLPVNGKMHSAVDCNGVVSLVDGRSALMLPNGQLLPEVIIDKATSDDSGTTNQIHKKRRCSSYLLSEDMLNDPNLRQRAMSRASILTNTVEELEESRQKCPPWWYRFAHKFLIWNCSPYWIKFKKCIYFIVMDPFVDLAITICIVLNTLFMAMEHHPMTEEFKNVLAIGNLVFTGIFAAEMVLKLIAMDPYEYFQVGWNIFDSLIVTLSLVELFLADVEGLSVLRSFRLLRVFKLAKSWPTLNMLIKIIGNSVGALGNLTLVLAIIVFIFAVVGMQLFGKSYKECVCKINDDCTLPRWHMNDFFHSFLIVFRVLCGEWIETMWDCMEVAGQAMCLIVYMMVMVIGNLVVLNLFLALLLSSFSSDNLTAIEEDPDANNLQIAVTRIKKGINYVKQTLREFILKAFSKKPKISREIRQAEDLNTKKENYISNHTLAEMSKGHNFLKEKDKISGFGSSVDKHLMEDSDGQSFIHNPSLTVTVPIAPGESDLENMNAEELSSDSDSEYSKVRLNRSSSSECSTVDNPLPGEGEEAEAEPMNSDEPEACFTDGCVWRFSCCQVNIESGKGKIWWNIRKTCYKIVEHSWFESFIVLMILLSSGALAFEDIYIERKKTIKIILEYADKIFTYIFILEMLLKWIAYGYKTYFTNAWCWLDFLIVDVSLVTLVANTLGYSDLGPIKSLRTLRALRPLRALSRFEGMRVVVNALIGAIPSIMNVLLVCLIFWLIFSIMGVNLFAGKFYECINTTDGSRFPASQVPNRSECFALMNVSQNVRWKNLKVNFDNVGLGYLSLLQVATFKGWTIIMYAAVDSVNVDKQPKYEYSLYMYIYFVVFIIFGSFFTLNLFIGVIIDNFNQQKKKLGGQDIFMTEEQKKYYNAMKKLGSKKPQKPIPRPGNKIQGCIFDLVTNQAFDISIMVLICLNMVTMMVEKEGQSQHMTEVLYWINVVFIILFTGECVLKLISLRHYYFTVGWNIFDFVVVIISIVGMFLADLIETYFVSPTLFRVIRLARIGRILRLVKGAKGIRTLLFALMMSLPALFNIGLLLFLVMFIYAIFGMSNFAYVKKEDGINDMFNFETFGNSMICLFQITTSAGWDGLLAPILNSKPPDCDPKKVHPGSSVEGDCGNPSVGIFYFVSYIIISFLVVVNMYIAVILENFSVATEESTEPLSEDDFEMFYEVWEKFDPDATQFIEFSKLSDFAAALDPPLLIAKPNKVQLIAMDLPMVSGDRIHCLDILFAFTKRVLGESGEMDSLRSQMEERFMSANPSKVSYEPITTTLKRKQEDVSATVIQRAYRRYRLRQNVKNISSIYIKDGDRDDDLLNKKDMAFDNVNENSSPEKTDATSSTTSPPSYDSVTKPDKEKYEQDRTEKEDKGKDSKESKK

Turning to `Nc1cc(Cl)ccc1-c1cccc2cc(S(=O)(=O)Nc3ncns3)ccc12`, it took 110 nM to reach half-maximal inhibition in test [1] (IC50).

In turn, `Cc1cc(Cl)ccc1-c1cccc2cc(S(=O)(=O)Nc3ncns3)ccc12` gave an IC50 in test [1] of 190 nM.

Regarding `O=S(=O)(Nc1ncns1)c1ccc2c(-c3ccc(Cl)cc3)cccc2c1`, the IC50 in test [1] was 190 nM.

In test [1], `O=S(=O)(Nc1ncns1)c1ccc2c(-c3ccc(Cl)cc3F)cccc2c1` came in with an IC50 of 210 nM.

On to `O=S(=O)(Nc1ncns1)c1ccc2c(-c3ccc(C(F)(F)F)cc3F)cccc2c1`, for which inhibition in test [1] was half-maximal at 210 nM (IC50).

With `O=S(=O)(Nc1ncns1)c1ccc2c(-c3ccc(C(F)(F)F)cc3)cccc2c1`, the IC50 in test [1] was 430 nM.

In turn, `O=S(=O)(Nc1ncns1)c1ccc2c(-c3ccc(Cl)cc3Cl)nccc2c1` registered a half-inhibitory concentration (IC50) in test [1] of 70 nM.

As for `O=S(=O)(Nc1ncns1)c1ccc2c(N3CCC3c3ccccc3)cccc2c1` (stereo not given), the IC50 in test [2] was 10500 nM; in test [1], 3900 nM.

As to `CN1CCC(c2cc(C(F)(F)F)ccc2-c2cccc3cc(S(=O)(=O)Nc4ncc(F)s4)ccc23)CC1`, the IC50 amounted to 282 nM in test [2] and 150 nM in test [1].

With `COc1cc(Cl)ncc1-c1nccc2cc(S(=O)(=O)Nc3ccncn3)ccc12`, the IC50 in test [2] was found to be 18300 nM; in test [1], 460 nM.

As for `O=S(=O)(Nc1ccncn1)c1ccc2c(-c3cc(C(F)(F)F)ccc3F)nccc2c1`, the IC50 in test [2] was 10800 nM; in test [1] it was 570 nM.

With `COc1cc(C)ccc1-c1nccc2cc(S(=O)(=O)Nc3nccs3)ccc12`, the IC50 in test [2] is 393 nM.

As to `O=S(=O)(Nc1nccs1)c1ccc2c(-c3ccc(F)cc3Oc3cccnn3)nccc2c1`, the IC50 in test [2] turned out to be 13500 nM.

In test [2], `O=S(=O)(Nc1nccs1)c1ccc2c(N3CCN(c4ccc(Cl)c(Cl)c4)CC3)nccc2c1` yielded an IC50 of 10900 nM.

Take `COc1cc(C#N)ccc1-c1nncc2cc(S(=O)(=O)Nc3nccs3)ccc12`: the IC50 worked out at 1230 nM in test [2] and 260 nM in test [1].

With `Cc1noc(C)c1-c1nccc2cc(S(=O)(=O)Nc3ccncn3)ccc12`, the IC50 in test [1] was above 10000 nM.

As to `Cc1cnc(OCCOc2ccccc2)c(-c2nccc3cc(S(=O)(=O)Nc4nccs4)ccc23)c1`, in test [2], the midpoint of inhibition, the IC50, lay at 5160 nM.

Compound `COc1cc(-c2cccnc2)ccc1-c1nccc2cc(S(=O)(=O)Nc3ccncn3)ccc12` registered an IC50 in test [2] of 5370 nM.

Take `O=S(=O)(Nc1nccs1)c1ccc2c(-c3ccc(C(F)(F)F)cc3Cl)ncnc2c1`: it took 971 nM to reach half-maximal inhibition in test [2] (IC50).

In test [2], `O=S(=O)(Nc1ccncn1)c1ccc2c(-c3ccc(-c4cccc(F)c4)cc3)nccc2c1` registered a concentration for half-maximal inhibition (IC50) of 4500 nM.
